The record followed here is ChEMBL document CHEMBL5143624, “WCK 1152, WCK 1153: Discovery and structure activity relationship for the treatment of resistant pneumococcal and staphylococcal respiratory infections” (Bioorg Med Chem Lett, 2022).

In brackets after ≈: the same amount, converted by molar mass.

Test [1] relates to Staphylococcus aureus. The test is described as follows: Antibacterial activity against methicillin resistant Staphylococcus aureus assessed as inhibition of bacterial growth incubated for 18 hrs by CLSI based serial agar dilution method. Type of test: functional.
Test [2] concerns Streptococcus pneumoniae. The test is described as follows: Antibacterial activity against Streptococcus pneumoniae assessed as inhibition of bacterial growth incubated for 18 hrs by CLSI based serial agar dilution method. The test is classed as functional. As to conditions: 18 h. (Agar dilution tests growth on a series of plates holding different concentrations.)
Test [3] deals with Staphylococcus aureus. The test is described as follows: Antibacterial activity against methicillin resistant Staphylococcus aureus 032 assessed as inhibition of bacterial growth incubated for 18 hrs by CLSI based serial agar dilution method. The test is classed as functional.
Test [4] concerns Streptococcus pneumoniae. The test is described as follows: Antibacterial activity against beta-lactams, macrolide and fluoroquinolone resistant Streptococcus pneumoniae 718 assessed as inhibition of bacterial growth incubated for 18 hrs by CLSI based serial agar dilution method. The test is classed as functional.
For test [5], the system named is Streptococcus pneumoniae. As to the kind of experiment: Antibacterial activity against fluoroquinolone efflux positive Streptococcus pneumoniae 706 assessed as inhibition of bacterial growth incubated for 18 hrs by CLSI based serial agar dilution method. Type of test: functional.
Test [6] has as its system Streptococcus pneumoniae. As to the kind of experiment: Antibacterial activity against beta-lactams, macrolide and fluoroquinolone resistant Streptococcus pneumoniae 718 infected in po dosed Swiss mouse septicemia model assessed as protective dose administered on 1 and 5 hrs post infection and measured on day 7. The test is classed as functional, organism-based.
Test [7] deals with Streptococcus pneumoniae. The test is described as follows: Antibacterial activity against Streptococcus pneumoniae 5844 harbouring moxifloxacin resistant DNA gyrase and topoisomerase IV mutant assessed as inhibition of bacterial growth incubated for 18 hrs by CLSI based serial agar dilution method. Type of test: functional. As to conditions: Streptococcus pneumoniae, 5844, 18 h.

The test system of test [8] is Staphylococcus aureus. As to the kind of experiment: Antibacterial activity against Staphylococcus aureus […] assessed as inhibition of bacterial growth incubated for 18 hrs by CLSI based serial agar dilution method. The test is classed as functional.
Test [9] deals with Staphylococcus aureus. The test is described as follows: Antibacterial activity against methicillin resistant Staphylococcus aureus 5076 harbouring DNA gyrase and topoisomerase IV mutant and efflux pump assessed as inhibition of bacterial growth incubated for 18 hrs in presence of efflux inhibitor by CLSI based serial agar dilution method. Type of test: functional.
Setting [10] is: Staphylococcus aureus, read-out: MIC.
Where [11] appears, read: Streptococcus pneumoniae, read-out: MIC.
Setting [12] is: Staphylococcus aureus, 032, 18 h, read-out: MIC.
[13] abbreviates: Streptococcus pneumoniae, 718, 18 h, read-out: MIC.

As usually defined, the MIC is the smallest concentration in the dilution series that meets the test's criterion for growth inhibition. For the compound `Cc1c(F)c(N2CCC(N)C(C)(C)C2)cc2c1c(=O)c(C(=O)O)cn2C1CC1` (stereo not given), the minimum inhibitory concentration (MIC) in test [1] (setting [10]) is above 12.5 µg/mL; in [2] (setting [11]) it was 0.8 µg/mL (≈ 2.06 µM).

In the case of `COc1c(N2CCC(NC(C)=O)C(C)(C)C2)c(F)cc2c(=O)c(C(=O)O)cn(C3CC3)c12` (stereo not given), the minimal inhibitory concentration (MIC) in test [1] (setting [10]) worked out at 0.4 µg/mL (≈ 0.898 µM); in test [2] (setting [11]), 1.56 µg/mL (≈ 3.5 µM).

For `Cc1c(N2CCC(O)C(C)(C)C2)c(F)cc2c(=O)c(C(=O)O)cn(C3CC3)c12.Cl` (racemic), the minimal inhibitory concentration (MIC) in [3] (setting [12]) and in [4] (setting [13]) was 0.8 µg/mL throughout.

Turning to `Cc1c(N2CCC(O)C(C)C2)c(F)cc2c(=O)c(C(=O)O)cn(C3CC3)c12` (stereo in doubt; form 2), the minimum inhibitory concentration (MIC) in test [3] and in [4] was 0.2 µg/mL (≈ 0.534 µM) throughout.

On to `COc1c(N2CC(C)C(N)C(C)C2)c(F)cc2c(=O)c(C(=O)O)cn(C3CC3)c12` (trans isomer), for which the figures for the MIC in test [1] and in test [2] were 0.05 µg/mL (≈ 0.124 µM) and 0.2 µg/mL (≈ 0.496 µM), respectively.

With `C[C@H]1CCc2c(N3CCC(O)CC3)c(F)cc3c(=O)c(C(=O)O)cn1c23` [LEVONADIFLOXACIN], the minimum inhibitory concentration (MIC) in test [1] (setting [10]) and in test [2] (setting [11]) was 0.4 µg/mL (≈ 1.11 µM) in each case.

In the case of `CNC1CCN(c2c(F)cc3c(=O)c(C(=O)O)cn(C4CC4)c3c2OC)CC1(C)C` (stereo not given), the minimal inhibitory concentration (MIC) in test [1] (setting [10]) came to 0.2 µg/mL (≈ 0.479 µM); in [2] (setting [11]), 1.56 µg/mL (≈ 3.74 µM); in [5], 1.56 µg/mL (≈ 3.74 µM).

In the case of `COc1c(N2CCNC(C)C2)c(F)cc2c(=O)c(C(=O)O)cn(C3CC3)c12` (stereo not given) [GATIFLOXACIN], the EC50 in test [6] is above 100 mg/kg.

Turning to `Cc1c(N2CCC(N)C(C)C2)c(F)cc2c(=O)c(C(=O)O)cn(C3CC3)c12.Cl` (stereo not given), the MIC in test [3] amounted to 1.56 µg/mL.

As for `Cc1c(N2CCC(N)C(C)C2)c(F)cc2c(=O)c(C(=O)O)cn(C3CC3)c12` (trans isomer), the MIC in [3] (setting [12]) turned out to be 0.8 µg/mL (≈ 2.14 µM).

Turning to `CCn1cc(C(=O)O)c(=O)c2cc(F)c(N3CCC(N)C(C)(C)C3)c(OC)c21` (stereo not given), the MIC was found to be 6.25 µg/mL (≈ 16 µM) in [1] (setting [10]) and 1.56 µg/mL (≈ 3.99 µM) in test [2] (setting [11]).

With `COc1c(N2CC(C)C(N(C)C)C(C)C2)c(F)cc2c(=O)c(C(=O)O)cn(C3CC3)c12` (stereo not given), the minimal inhibitory concentration (MIC) stood at 0.1 µg/mL (≈ 0.232 µM) in test [1] (setting [10]), 0.2 µg/mL (≈ 0.463 µM) in test [2] (setting [11]) and 0.2 µg/mL (≈ 0.463 µM) in test [5].

Take `CONC1CCN(c2c(F)cc3c(=O)c(C(=O)O)cn(C4CC4)c3c2OC)CC1(C)C` (stereo not given): the minimal inhibitory concentration (MIC) in test [1] (setting [10]) was 0.1 µg/mL (≈ 0.231 µM); in [2] (setting [11]) it was 0.8 µg/mL (≈ 1.85 µM); in test [7], above 6.25 µg/mL; in [5], 0.8 µg/mL (≈ 1.85 µM).

On to `COc1c(N2CCC(N(C)C)C(C)(C)C2)c(F)cc2c(=O)c(C(=O)O)cn(C3CC3)c12` (stereo not given), for which the minimum inhibitory concentration (MIC) in test [1] (setting [10]) worked out at 0.2 µg/mL (≈ 0.463 µM); in test [2] (setting [11]) it was 0.4 µg/mL (≈ 0.927 µM).

Consider `COc1c(N2CC[C@H](N)C(C)(C)C2)c(F)cc2c(=O)c(C(=O)O)cn(C3CC3)c12`, for which the minimal inhibitory concentration (MIC) in [1] (setting [10]) stood at 0.05 µg/mL (≈ 0.124 µM); in test [3] (setting [12]) it was 0.8 µg/mL (≈ 1.98 µM); in test [4] (setting [13]), 0.8 µg/mL (≈ 1.98 µM); in [8], 0.05 µg/mL (≈ 0.124 µM); in test [9], 1.56 µg/mL. Also, the EC50 in [6] turned out to be 50 mg/kg.

With `CC1(C)CN(c2nc3c(cc2F)c(=O)c(C(=O)O)cn3C2CC2)CCC1N` (stereo not given), the values for the MIC in test [1] (setting [10]) and in test [2] (setting [11]) were above 12.5 µg/mL and 3.12 µg/mL (≈ 8.33 µM), respectively.

Take `COc1c(N2CCC(NC3CC3)C(C)C2)c(F)cc2c(=O)c(C(=O)O)cn(C3CC3)c12` (stereo not given): the MIC in [1] (setting [10]) stood at 0.4 µg/mL (≈ 0.931 µM); in [2] (setting [11]), 1.56 µg/mL (≈ 3.63 µM).

With `CNC1CCN(c2c(F)cc3c(=O)c(C(=O)O)cn(C4CC4)c3c2OC)CC1C` (stereo not given), the results for the MIC in [1] (setting [10]) and in test [2] (setting [11]) were 0.2 µg/mL (≈ 0.496 µM) and 1.56 µg/mL (≈ 3.87 µM), respectively.

`CC1COc2c(N3CCN(C)CC3)c(F)cc3c(=O)c(C(=O)O)cn1c23` (stereo not given) [OFLOXACIN]: the minimum inhibitory concentration (MIC) in [1] (setting [10]) and in test [2] (setting [11]) was 0.4 µg/mL (≈ 1.11 µM) each time.

As to `Cc1c(N2CCC(N)C(C)(C)C2)c(F)cc2c(=O)c(C(=O)O)cn(C3CC3)c12.Cl` (racemic), the EC50 in test [6] amounted to 30 mg/kg.

On to `COc1c(N2CCC(NC3CC3)C(C)(C)C2)c(F)cc2c(=O)c(C(=O)O)cn(C3CC3)c12` (stereo not given), for which the results for the MIC in test [1] (setting [10]), in test [2] (setting [11]) and in [5] were 0.2 µg/mL (≈ 0.451 µM), 0.8 µg/mL (≈ 1.8 µM) and 0.8 µg/mL (≈ 1.8 µM), respectively.

Turning to `CCNC1CCN(c2c(F)cc3c(=O)c(C(=O)O)cn(C4CC4)c3c2OC)CC1C` (stereo not given), the minimal inhibitory concentration (MIC) stood at 0.4 µg/mL (≈ 0.958 µM) in test [1] (setting [10]) and 1.56 µg/mL (≈ 3.74 µM) in test [2] (setting [11]).

In the case of `CNC1C(C)CN(c2c(F)cc3c(=O)c(C(=O)O)cn(C4CC4)c3c2OC)CC1C` (stereo not given), the MIC in [1] (setting [10]) was 0.1 µg/mL (≈ 0.24 µM); in test [2] (setting [11]) it was 0.4 µg/mL (≈ 0.958 µM).

As to `CCC1(C)CN(c2c(F)cc3c(=O)c(C(=O)O)cn(C4CC4)c3c2OC)CCC1NC` (stereo not given), the MIC was determined as 6.25 µg/mL (≈ 14.5 µM) in test [7] and 1.56 µg/mL (≈ 3.62 µM) in test [5].

Consider `Cc1c(F)c(N2CCC(N)C(C)(C)C2)c(F)c2c1c(=O)c(C(=O)O)cn2C1CC1` (stereo not given), for which the minimal inhibitory concentration (MIC) amounted to 3.12 µg/mL (≈ 7.7 µM) in test [1] (setting [10]) and 0.1 µg/mL (≈ 0.247 µM) in [2] (setting [11]).
